Calls of active or inactive are those of the source.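 Rule for the calls: active = compounds giving half or more protection of infected cells from virus-caused growth loss, again on retest; inactive = the rest.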
Test system: CEM cells HIV-1 protection, formazan growth assay
Assay: NCI AIDS Antiviral Assay
Details: for IC50: measured here: growth of uninfected CEM cells
Outline: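 Human CEM cells, uninfected and HIV-1-infected, received five drug concentrations, and growth was read by soluble formazan assay. Compounds giving at least 50% protection were retested; reproducible 100% protection defined confirmed active.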

SMILES: CC#CC(OCC)(OCC)OCC
- EC50: > 1350 µM
- IC50: > 1350 µM

SMILES: COc1cccc2c1OC1Sc3ccccc3-c3nn(-c4ccccc4)c-2c31 (configuration not stated)
- EC50: > 7.08 µM
- IC50: > 7.08 µM

SMILES: Cn1cc(NC(=O)c2cc(NC(=O)CCCCCCCCCC(=O)Nc3cc(C(=O)Nc4cc(C(=O)NCCC(=N)N)n(C)c4)n(C)c3)cn2C)cc1C(=O)NCCC(=N)N
- EC50: 4.37 µM
- IC50: 5.75 µM

SMILES: CN(C)Cc1cc(CN(C)C)cc(CN(C)C)c1
- EC50: > 200 µM
- IC50: > 200 µM

SMILES: N#C/C(=C/NC(=S)N=Nc1c(O)[nH]c2ccccc12)C(N)=O
- EC50: > 200 µM
- IC50: 195 µM

SMILES: COc1ccc2c(c1OC)CN(C)CCc1cc3c(cc1C(=O)C2)OCO3
- EC50: > 355 µM
- IC50: 288 µM

SMILES: CC(=O)CC(=O)N1CCSC1=S
- EC50: 126 µM
- IC50: > 200 µM

SMILES: O=C1C2ON3c4ccccc4C(=O)C3(c3ccccc3)C2C(=O)N1c1ccccc1 (configuration not stated)
- EC50: > 18.2 µM
- IC50: > 18.2 µM

SMILES: CCOC(=O)Cc1nc(/C(C#N)=C/c2ccco2)[nH]c(=O)c1C#N
- outcome: inactive

SMILES: COc1ccc(-n2c(N)c(C#N)c(C#N)c2-c2ccccc2)cc1
- EC50: > 200 µM
- IC50: 12 µM

SMILES: CO/C(=N\N=Cc1ccccc1)c1ccncc1
- EC50: 15.1 µM
- IC50: 166 µM

SMILES: O=C(c1cccs1)N(C(=S)N1CCN(c2ccccc2)CC1)c1ccccc1
- EC50: > 12.9 µM
- IC50: > 12.9 µM

SMILES: CC1(C)CC(c2c[nH]c3ccccc23)=CC2=Nc3ccccc3C21O (configuration not stated)
- outcome: inactive

SMILES: O=C(O)c1cc(CC2Cc3cc4c(cc3C2=O)CCC4)cc2c1CCC2 (configuration not stated)
- EC50: > 200 µM
- IC50: 53.7 µM

SMILES: CN(C)CC[N+]1=Nc2cccc3cccc(c23)N1
- outcome: inactive

SMILES: Cn1c(O)c(C=Nc2ccc(Cl)cc2Cl)c(=O)n(C)c1=O
- EC50: > 200 µM
- IC50: > 200 µM

SMILES: NCCCCCCn1c(-c2ccc(Br)cc2)csc1=Nc1ccccc1
- EC50: > 200 µM
- IC50: 3.55 µM

SMILES: CN1CCN(C(=S)N2CCN(C)CC2)CC1
- EC50: > 2 µM
- IC50: 1.91 µM

SMILES: NC(=O)C(F)(Cc1ccccc1)C(=O)O (configuration not stated)
- EC50: > 200 µM
- IC50: > 200 µM

SMILES: O=C1OCCC1(Cc1ccc(Cl)cc1)Cc1ccc(Cl)cc1
- EC50: > 29.5 µM
- IC50: > 29.5 µM

SMILES: CC12C(C(=O)O)C1(c1ccccc1)C2C(=O)O (configuration not stated)
- EC50: > 1070 µM
- IC50: > 1070 µM

SMILES: CC1(C)C(=O)C(C)(C)C1=NN
- EC50: > 83.2 µM
- IC50: > 83.2 µM

SMILES: O=C(OCc1ccccc1C1CSCSC1)c1cc(C(=O)OCc2ccccc2C2CSCSC2)c(C(=O)OCc2ccccc2C2CSCSC2)cc1C(=O)OCc1ccccc1C1CSCSC1
- EC50: > 1.82 µM
- IC50: > 1.82 µM

SMILES: CCOC(=O)C1=C(C)N(c2ccccc2)C2=C(C(=O)N(c3ccccc3)C2c2ccccc2)C1c1ccccc1 (configuration not stated)
- EC50: > 67.6 µM
- IC50: > 67.6 µM

SMILES: Nc1ccc2c(c1)C1Oc3ccccc3CC1CO2 (configuration not stated)
- EC50: > 200 µM
- IC50: 110 µM

SMILES: COC(=O)[C@H](Cc1ccccc1)NC(=O)N(CCC#N)CCN(C(=O)N[C@@H](Cc1ccccc1)C(=O)OC)c1ccccc1
- EC50: > 200 µM
- IC50: 29.5 µM

SMILES: [O-]c1c2cc(-[n+]3c(-c4ccccc4)cc(-c4ccccc4)cc3-c3ccccc3)cc1CO[C@@H](c1ccccc1)[C@H](c1ccccc1)OCc1cccc(n1)CO[C@@H](c1ccccc1)[C@H](c1ccccc1)OC2
- EC50: > 1 µM
- IC50: 0.0794 µM

SMILES: C/C(=N\N=C(N)N)C(CN(CC(C)C)CC(C)C)C(=O)Nc1ccc(C)cc1C (configuration not stated)
- EC50: > 17.8 µM
- IC50: > 17.8 µM

SMILES: Cc1ccccc1C=C1C(=O)NC(=O)NC1=O
- EC50: > 407 µM
- IC50: > 407 µM

SMILES: O=C(NC(=O)c1ccccc1)OC(c1ccccc1)C1CO1 (configuration not stated)
- EC50: > 200 µM
- IC50: > 200 µM

SMILES: O=C(/C(=C/c1ccc(Br)cc1)c1ccccc1)c1ccccc1
- EC50: > 14.5 µM
- IC50: > 14.5 µM

SMILES: CC(C)(c1ccccc1)C(C)(C)c1nc(-c2ccccc2)cc(-c2ccccc2)n1
- EC50: > 3.72 µM
- IC50: > 3.72 µM

SMILES: COc1ccc2c(c1)[n+](=O)c(C(=O)C/C(=N/NC(=O)C[N+](C)(C)C)C(=O)Nc1cccc(C)c1C)c(C)n2O
- EC50: > 6.31 µM
- IC50: > 6.31 µM

SMILES: CCC1NCC(=O)c2c1[nH]c1ccccc21 (configuration not stated)
- outcome: inactive

SMILES: O=C(CC(=O)N1N=C(c2ccccc2)C(N=Nc2ccccc2[N+](=O)[O-])C1=O)Nc1ccccc1F (configuration not stated)
- EC50: > 27.5 µM
- IC50: > 27.5 µM

SMILES: O=C1CC(c2ccc(Cl)cc2)NC(=O)N1CCCl (configuration not stated)
- EC50: > 200 µM
- IC50: > 200 µM

SMILES: O=C(O/N=C1\CCCC\C1=C/c1ccccc1)c1ccc([N+](=O)[O-])cc1
- outcome: inactive

SMILES: CCCC/C(CC)=N/NS(=O)(=O)c1ccc(NC(C)=O)cc1
- EC50: > 398 µM
- IC50: 288 µM

SMILES: COc1ccc(C(c2cc3c(cc2O)OCO3)N2CCOCC2)c(OC)c1 (configuration not stated)
- EC50: > 95.5 µM
- IC50: 7.94 µM

SMILES: COc1ccc(C2SCC(=O)N2c2ccc(-c3ccc(-n4c(-c5ccccc5)nc5ccccc5c4=O)cc3)cc2)cc1OC (configuration not stated)
- EC50: > 200 µM
- IC50: 18.2 µM

SMILES: O=c1c2c3c(sc2nc2n1N=C(c1ccc(Br)cc1)CS2)CCCC3
- EC50: > 200 µM
- IC50: > 200 µM

SMILES: CS[C@]12[C@@H]3C(=O)N(C)C(=O)[C@@H]3[C@](C)(C(=O)N1C)C(=O)N2c1ccccc1
- EC50: > 200 µM
- IC50: > 200 µM

SMILES: O=C1CC(C(=O)N2CCCCC2)n2c(=O)n(-c3ccccc3)c(=O)n2C1 (configuration not stated)
- EC50: > 200 µM
- IC50: > 200 µM

SMILES: Cc1nc(/C=C2\C(=O)C=Cc3ccccc32)c(O)o1
- EC50: > 102 µM
- IC50: > 102 µM

SMILES: CC(C)(c1ccccc1)c1ccc(Oc2ccc3c(c2)-c2nc-3nc3[nH]c(nc4nc(nc5[nH]c(n2)c2ccc(Oc6ccc(C(C)(C)c7ccccc7)cc6)cc52)-c2cc(Oc5ccc(C(C)(C)c6ccccc6)cc5)ccc2-4)c2ccc(Oc4ccc(C(C)(C)c5ccccc5)cc4)cc32)cc1
- EC50: > 2.63 µM
- IC50: > 2.63 µM

SMILES: CCCCCCCCCCCCN1[C@H]2CCC[C@H]2C(O)[C@@H]2CCC[C@@H]21 (some centres not stated)
- EC50: > 200 µM
- IC50: 4.9 µM

SMILES: CCn1c(=O)c(N=O)c(N)n(CCO)c1=O
- EC50: > 200 µM
- IC50: > 200 µM

SMILES: COc1cccc(/C=N/[N-]C(=O)c2ccncc2)c1[O-].[Mn+2].[OH3+]
- EC50: > 39.8 µM
- IC50: 6.61 µM

SMILES: C=CCN=C1NC(=O)C(CC(=O)Nc2cccc(Cl)c2)S1 (configuration not stated)
- EC50: > 288 µM
- IC50: > 288 µM

SMILES: S=C1CC(c2ccccc2)Sc2cc(Cl)ccc2N1 (configuration not stated)
- EC50: > 200 µM
- IC50: 1.26 µM

SMILES: CC(=O)Nc1c(C)cc2c(nc3n2CCC3O)c1[N+](=O)[O-] (configuration not stated)
- EC50: > 200 µM
- IC50: > 200 µM

SMILES: Clc1ccc2nc3occ(Br)c3cc2c1
- EC50: > 13.2 µM
- IC50: > 13.2 µM

SMILES: O=[N+]([O-])c1ccc(/C=C/C=C/C=C/C=C/c2ccc(S(=O)(=O)F)cc2Cl)c(Cl)c1
- EC50: > 200 µM
- IC50: 186 µM

SMILES: CN(C)c1ccc2nc(CC(O)(C(F)(F)F)C(F)(F)F)ccc2c1
- EC50: > 200 µM
- IC50: > 200 µM

SMILES: O=C1CSC(=S)N1N1C(=O)CSC1=S
- EC50: > 200 µM
- IC50: > 200 µM

SMILES: O=C(O)c1ccc(NNC(=O)c2cccc3c(=O)c4ccccc4[nH]c23)cc1
- EC50: > 200 µM
- IC50: 74.1 µM

SMILES: COc1ccc(N/N=C2\CCOc3ccc(C)cc3C2=O)cc1
- EC50: > 20 µM
- IC50: 12 µM

SMILES: CNC(=S)N(C)C(=S)Nn1c(=O)c(C)nn(C)c1=S
- EC50: 18.6 µM
- IC50: > 200 µM

SMILES: CCOC(=O)Cn1c(=O)c2nc(SC)sc2n(-c2ccccc2)c1=S
- EC50: > 200 µM
- IC50: > 200 µM

SMILES: OCC(CO)c1cnnc2ccccc12
- EC50: > 525 µM
- IC50: > 525 µM

SMILES: NC(N)=NNC(=O)CCn1[nH]c(=O)c(Cl)c(Cl)c1=O
- EC50: > 813 µM
- IC50: > 813 µM
